Results: patent US5622962A, “5α-reductase inhibitors” (priority 1995, dated 1997)
Where “and” joins values, the source holds several entries; their conditions need not be identical. Equal entries are not always repeated. Where two headings read alike, the source gives them in different places.

Key:
[1] = target: T1, Type I 5α-Reductase from Human Scalp (Homo sapiens, UniProt P18405); test: Human Type I 5α-reductase assay (conversion of [3H]-testosterone to 5α-reduced metabolites); assay type: biochemical; conditions: for percent inhibition of Type I AR: 0.3 μM
T1 construct: Scalp punch biopsies from graft recipient sites were obtained from human hair transplant procedures; from tissue; host or cells: human scalp punch biopsies (hair transplant graft recipient sites), homogenate, 100,000×g pellet
T1 sequence (P18405 1-259): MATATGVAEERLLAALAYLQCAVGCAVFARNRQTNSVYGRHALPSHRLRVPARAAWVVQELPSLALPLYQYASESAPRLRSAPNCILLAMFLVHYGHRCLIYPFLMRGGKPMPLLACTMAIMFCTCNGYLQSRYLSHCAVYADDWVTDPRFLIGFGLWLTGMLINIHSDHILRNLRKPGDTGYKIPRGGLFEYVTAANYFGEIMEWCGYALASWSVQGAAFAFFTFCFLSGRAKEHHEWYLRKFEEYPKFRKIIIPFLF

[2] = target: T2, Type II 5α-Reductase from Human Prostate (Homo sapiens, UniProt P31213); test: Human Type II 5α-reductase assay (conversion of [3H]-testosterone to 5α-reduced metabolites); assay type: biochemical
T2 construct: The same procedure as above was used for preparations using tissue from prostate surgery; from tissue; host or cells: human prostate tissue from surgery, homogenate, 100,000×g pellet
T2 sequence (P31213 1-254): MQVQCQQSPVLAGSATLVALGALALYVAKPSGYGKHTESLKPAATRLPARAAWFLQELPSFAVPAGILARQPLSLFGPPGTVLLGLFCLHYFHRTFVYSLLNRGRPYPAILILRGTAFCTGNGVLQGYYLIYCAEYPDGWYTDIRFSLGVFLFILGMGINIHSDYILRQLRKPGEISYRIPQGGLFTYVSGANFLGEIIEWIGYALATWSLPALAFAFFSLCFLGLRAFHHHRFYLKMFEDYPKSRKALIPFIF

[3] = pH 7.5, 0.3 μM, 50 nM [3H]-testosterone, pH 7.5, 25°, 180 min, compared to control reaction mixtures, read-out: percent inhibition of Type I AR
[4] = pH 5.5, 0.3 μM, sodium acetate pH 5.5, 25°, 30 min, compared to control reaction mixtures, read-out: percent inhibition of Type II AR
[5] = 50 nM [3H]-testosterone, pH 7.5, 25°, 180 min, compared to control reaction mixtures

Row | Structure (SMILES) | inhibition at 0.3 µM [1, 3] | inhibition at 0.3 µM [2, 4] | further results
1 | CN1C(=O)CC[C@]2(C)c3ccc(-c4ccc(Cl)c(C(F)(F)F)c4)cc3CC[C@@H]12 [Example 24, (+)-(4aR)-(10bR)-4-methyl-8-(4-chloro-3-trifluoromethylphenyl)-10b-methyl-1,2,3,4,4a,5,6,10b-octahydrobenzo[f]-quinolin-3-one] | 88% | 28% | –
2 | CN1C(=O)CC[C@]2(C)c3ccc(-c4ccc(O)c(Cl)c4)cc3CC[C@@H]12 [Example 25, (+)-(4aR)-(10bR)-4-methyl-8-(3-chloro-4-hydroxyphenyl)-10b-methyl-1,2,3,4,4a,5,6,10b-octahydrobenzo[f]quinolin-3-one] | 83% | 31% | –
3 | CN1C(=O)CC[C@]2(C)c3ccc(-c4ccc(O)c(F)c4)cc3CC[C@@H]12 [Example 28, (+)-(4aR)-(10bR)-4-methyl-8-(3-fluoro-4-hydroxyphenyl)-10b-methyl-1,2,3,4,4a,5,6,10b-octahydrobenzo[f]quinolin-3-one] | 65% | 36% | –
4 | CN1C(=O)CC[C@]2(C)c3ccc(-c4ccc5c(c4)OCCO5)cc3CC[C@@H]12 [Example 29, (+)-(4aR)-(10bR)-4-methyl-8-(3,4-ethylenedioxyphenyl)-10b-methyl-1,2,3,4,4a,5,6,10b-octahydrobenzo[f]quinolin-3-one] | 78% | 26% | –
5 | CN1C(=O)CC[C@]2(C)c3ccc(-c4cc(C(C)(C)C)c(O)c(C(C)(C)C)c4)cc3CC[C@@H]12 [Example 30, (+)-(4aR)-(10bR)-4-methyl-8-(3,5-di [t-butyl]-4-hydroxyphenyl)-10b-methyl-1,2,3,4,4a,5,6,10b-octahydrobenzo[f]quinolin-3-one] | 19% | 21% | –
6 | CN1C(=O)CC[C@]2(C)c3ccc(-c4ccc(F)cc4C(F)(F)F)cc3CC[C@@H]12 [Example 31, (+)-(4aR)-(10bR)-4-methyl-8-(2-trifluoromethyl-4-fluorophenyl)-10b-methyl-1,2,3,4,4a,5,6,10b-octahydrobenzo[f]-quinolin-3-one] | – | – | inhibition at 0.3 µM ([1]; pH 7.5, read-out: percent inhibition of Type I AR): 84%; inhibition at 0.3 µM ([2]; pH 5.5, read-out: percent inhibition of Type II AR): 22%
7 | CN1C(=O)CC[C@]2(C)c3ccc(-c4ccc(NC(=O)C(C)(C)C)c5ccccc45)cc3CC[C@@H]12 [Example 32, (+)-(4aR)-(10bR)-4-methyl-8-(1-[4-t-butylcarbonylamino]naphthyl)-10b-methyl-1,2,3,4,4a,5,6,10b-octahydrobenzo[f]-quinolin-3-one] | 71% | 18% | –
8 | CN1C(=O)CC[C@]2(C)c3ccc(-c4cc(C(F)(F)F)ccc4Cl)cc3CC[C@@H]12 [Example 33, (+)-(4aR)-(10bR)-4-methyl-8-(2-chloro-5-trifluoromethylphenyl)-10b-methyl-1,2,3,4,4a,5,6,10b-octahydrobenzo[f]-quinolin-3-one] | 55% | 40% | –
9 | CN1C(=O)CC[C@]2(C)c3ccc(-c4cccc(C(=O)NC(C)(C)C)c4)cc3CC[C@@H]12 [Example 34, (+)-(4aR)-(10bR)-4-methyl-8-(3-t-butylcarboxamidophenyl)-10b-methyl-1,2,3,4,4a,5,6,10b-octahydrobenzo[f]quinolin-3-one] | 13% | 5% | –
10 | CCN(CC)C(=O)c1c(-c2ccc3c(c2)CC[C@H]2N(C)C(=O)CC[C@]32C)ccc2ccccc12 [Example 35, (+)-(4aR)-(10bR)-4-methyl-8-(2-[1-diethylcarboxamido]naphthyl)-10b-methyl-1,2,3,4,4a,5,6,10b-octahydrobenzo[f]-quinolin-3-one] | 17% | 27% | –
11 | COc1cc(-c2ccc3c(c2)CC[C@H]2N(C)C(=O)CC[C@]32C)ccc1O [Example 36, (+)-(4aR)-(10bR)-4-methyl-8-(4-hydroxy-3-methoxyphenyl)-10b-methyl-1,2,3,4,4a,5,6,10b-octahydrobenzo[f]quinolin-3-one] | 41% | 52% | –
12 | CN1C(=O)CC[C@]2(C)c3ccc(-c4ccc(NC(=O)C(C)(C)C)cc4)cc3CC[C@@H]12 [Example 37, (+)-(4aR)-(10bR)-4-methyl-8-(4-t-butylcarbonylaminophenyl)-10b-methyl-1,2,3,4,4a,5,6,10b-octahydrobenzo[f]quinolin-3-one] | 72% | 58% | –
13 | CN1C(=O)CC[C@]2(C)c3ccc(-c4ccccc4F)cc3CC[C@@H]12 [Example 38, (+)-(4aR)-(10bR)-4-methyl-8-(2-fluorophenyl)-10b-methyl-1,2,3,4,4a,5,6,10b-octahydrobenzo[f]quinolin-3-one] | 84% | 56% | percent inhibition of Type II AR ([2]; 0.3 μM, sodium acetate pH 5.5, 25°, 30 min, compared to control reaction mixtures): 38%
14 | COc1ccccc1-c1ccc2c(c1)CC[C@H]1N(C)C(=O)CC[C@]21C [Example 39, (+)-(4aR)-(10bR)-4-methyl-8-(2-methoxyphenyl)-10b-methyl-1,2,3,4,4a,5,6,10b-octahydrobenzo[f]quinolin-3-one] | 81% | 34% | –

More lines, main results first:

Row | inhibition at 0.3 µM [1, 3] | inhibition at 0.3 µM [2, 4] | Structure (SMILES) | further results
15 | 90% | 35% | Cc1ccccc1-c1ccc2c(c1)CC[C@H]1N(C)C(=O)CC[C@]21C [Example 40, (+)-(4aR)-(10bR)-4-methyl-8-(2-methylphenyl)-10b-methyl-1,2,3,4,4a,5,6,10b-octahydrobenzo[f]quinolin-3-one] | –
16 | 88% | 18% | CN1C(=O)CC[C@]2(C)c3ccc(-c4ccccc4Cl)cc3CC[C@@H]12 [Example 41, (+)-(4aR)-(10bR)-4-methyl-8-(2-chlorophenyl)-10b-methyl-1,2,3,4,4a,5,6,10b-octahydrobenzo[f]quinolin-3-one] | –
17 | 68% | 18% | CN1C(=O)CC[C@]2(C)c3ccc(-c4ccccc4C(F)(F)F)cc3CC[C@@H]12 [Example 43, (+)-(4aR)-(10bR)-4-methyl-8-(2-trifluoromethylphenyl)-10b-methyl-1,2,3,4,4a,5,6,10b-octahydrobenzo[f]quinolin-3-one] | –
18 | 3% | 31% | CN1C(=O)CC[C@]2(C)c3ccc(-c4ccc(F)c(C(F)(F)F)c4)cc3CC[C@@H]12 [Example 46, (+)-(4aR)-(10bR)-4-methyl-8-(4-fluoro-3-trifluoromethylphenyl)-10b-methyl-1,2,3,4,4a,5,6,10b-octahydrobenzo[f]-quinolin-3-one] | –
19 | 96% | 4% | CN1C(=O)CC[C@]2(C)c3ccc(-c4ccccc4)cc3CC[C@@H]12 [Example 49, (+)-(4aR)-(10bR)-4-methyl-8-phenyl-10b-methyl-1,2,3,4,4a,5,6,10b-octahydrobenzo[f]quinolin-3-one] | –
20 | 95% | 32% | CN1C(=O)CC[C@]2(C)c3ccc(-c4ccc(Cl)cc4)cc3CC[C@@H]12 [Example 50, (+)-(4aR)-(10bR)-4-methyl-8-(4-chlorophenyl)-10b-methyl-1,2,3,4,4a,5,6,10b-octahydrobenzo[f]quinolin-3-one] | percent inhibition of Type I AR [1, 5]: 94%
21 | 91% | 14% | Cc1ccc(-c2ccc3c(c2)CC[C@H]2N(C)C(=O)CC[C@]32C)cc1 [Example 51, (+)-(4aR)-(10bR)-4-methyl-8-(4-methylphenyl)-10b-methyl-1,2,3,4,4a,5,6,10b-octahydrobenzo[f]quinolin-3-one] | –
22 | 68% | 10% | CN1C(=O)CC[C@]2(C)c3ccc(-c4cc(Cl)cc(Cl)c4)cc3CC[C@@H]12 [Example 52, (+)-(4aR)-(10bR)-4-methyl-8-(3,5-dichlorophenyl)-10b-methyl-1,2,3,4,4a,5,6,10b-octahydrobenzo[f]quinolin-3-one] | –
23 | – | 41% | CN1C(=O)CC[C@]2(C)c3ccc(-c4cccc5ccccc45)cc3CC[C@@H]12 [Example 53, (+)-(4aR)-(10bR)-4-methyl-8-(1-naphthyl)-10b-methyl-1,2,3,4,4a,5,6,10b-octahydrobenzo[f]quinolin-3-one] | percent inhibition of Type I AR [1, 5]: 100% and 66%
24 | 68% | 11% | CN1C(=O)CC[C@]2(C)c3ccc(-c4cccc(-c5ccccc5)c4)cc3CC[C@@H]12 [Example 55, (+)-(4aR)-(10bR)-4-methyl-8-(3-biphenyl)-10b-methyl-1,2,3,4,4a,5,6,10b-octahydrobenzo[f]quinolin-3-one] | –
25 | 92% | 3% | CN1C(=O)CC[C@]2(C)c3ccc(-c4ccc(Oc5ccccc5)cc4)cc3CC[C@@H]12 [Example 56, (+)-(4aR)-(10bR)-4-methyl-8-(4-phenoxyphenyl)-10b-methyl-1,2,3,4,4a,5,6,10b-octahydrobenzo[f]quinolin-3-one] | –
